In patent US20240300948A1, “Heterocyclic Compounds As Kinase Inhibitors” (Incyte Corporation, priority 2023, published 2024):

Tests used:
[1] = target: T1, pseudo-kinase domain (JH2, amino-acids 536-812 with 3 surface mutations W659A, W777A, F794H) of human V617F mutant JAK2 (Homo sapiens, UniProt O60674, F794H/V617F/W659A/W777A); experiment: JAK2 LanthaScreen JH2-V617F binding assay; conditions: 50 nM tracer, 1 hour at 25° C., read-out: JH2 BIND V617F IC50
T1 construct: pseudo-kinase domain (JH2, amino-acids 536-812 with 3 surface mutations W659A, W777A, F794H); His (C); Avi (biotinylated) (C); purchased BPS Bioscience 79498; host or cells: baculovirus expression system
T1 sequence (O60674 536-812 V617F/W659A/W777A/F794H): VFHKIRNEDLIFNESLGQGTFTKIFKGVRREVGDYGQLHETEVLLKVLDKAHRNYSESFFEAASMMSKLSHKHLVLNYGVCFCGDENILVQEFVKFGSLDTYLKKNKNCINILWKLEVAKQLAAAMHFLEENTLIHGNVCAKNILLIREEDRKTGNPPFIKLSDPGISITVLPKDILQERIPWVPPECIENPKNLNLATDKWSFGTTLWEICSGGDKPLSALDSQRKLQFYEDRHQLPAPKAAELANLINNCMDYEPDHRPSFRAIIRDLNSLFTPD
Method: Example C. JAK2 LanthaScreen JH2-V617F Binding Assay
(§1) JAK2 JH2-V617F binding assay utilizes pseudo-kinase domain (JH2, amino-acids 536-812 with 3 surface mutations W659A, W777A, F794H) of human V617F mutant JAK2 expressed as C-terminal His-Avi-tagged, biotinylated protein in a baculovirus expression system (BPS Bioscience, Catalog #79498). The assay was conducted in black 384-well polystyrene plates in a final reaction volume of 20 μL. JAK2 JH2-V617F (0.26 nM) was incubated with compounds (100 nL serially diluted in DMSO) in the presence of 50 nM Fluorescent JAK2-JH2 Tracer (MedChem Express Catalog #HY-102055) and 0.25 nM Streptavidin-Tb cryptate (Cisbio Part #610SATLB) in assay buffer (50 mM Tris, pH=7.5, 10 mM MgCl2, 0.01% Brij-35, 0.1% BSA, 1 mM EGTA, 5% Glycerol and 5 mM DTT). Non-specific binding was accessed in the presence of 2 mM ATP. After incubation for 1 hour at 25° C., LanthaScreen signals were read on a PHERAstar FS plate reader (BMG LABTECH). Data was analyzed with IDBS XLfit and GraphPad Prism 5.0 software using a four parameter dose response curve to determine IC50 for each compound.

[2] = target: T2, catalytic domain (JH1, amino acids 826-1132) of human JAK2 (Homo sapiens, UniProt O60674); experiment: JAK2 LanthaScreen JH1 binding assay; conditions: 50 nM tracer, 2 hours at 25° C., read-out: JH1 BIND IC50
T2 construct: catalytic domain (JH1, amino acids 826-1132) of human JAK2; FLAG (N); purchased Carna Biosciences 08-445-20N; host or cells: baculovirus expression system
T2 sequence (O60674 826-1132): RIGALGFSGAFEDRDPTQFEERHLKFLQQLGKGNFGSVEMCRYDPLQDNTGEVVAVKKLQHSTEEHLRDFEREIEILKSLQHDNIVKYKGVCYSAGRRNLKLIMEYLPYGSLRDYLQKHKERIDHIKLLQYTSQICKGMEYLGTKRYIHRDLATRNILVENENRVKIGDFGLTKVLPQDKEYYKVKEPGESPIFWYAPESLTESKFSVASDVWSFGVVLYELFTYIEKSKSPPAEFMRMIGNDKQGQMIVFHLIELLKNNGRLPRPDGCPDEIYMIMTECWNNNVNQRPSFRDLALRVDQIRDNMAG
Method: Example A. JAK2 LanthaScreen […] Binding Assay
JAK2 JH1 binding assay utilizes catalytic domain (JH1, amino acids 826-1132) of human JAK2 expressed as N-terminal FLAG-tagged, biotinylated protein in a baculovirus expression system (Carna Biosciences, Product #08-445-20N). The assay was conducted in black 384-well polystyrene plates in a final reaction volume of 20 μL. JAK2 JH1 (1.5 nM) was incubated with compounds (100 nL serially diluted in DMSO) in the presence of 50 nM fluorescent JAK2-JH1 tracer and 0.5 nM Streptavidin-Tb cryptate (Cisbio Part #610SATLB) in assay buffer (50 mM Tris, pH=7.5, 10 mM MgCl2, 0.01% Brij-35, 0.1% BSA, 1 mM EGTA, 5% Glycerol and 5 mM DTT). Non-specific binding was accessed in the presence of 2 mM ATP. After incubation for 2 hours at 25° C., LanthaScreen signals were read on a PHERAstar FS plate reader (BMG LABTECH). Data was analyzed with IDBS XLfit and GraphPad Prism 5.0 software using a four parameter dose response curve to determine IC50 for each compound.

[3] = target: T3, pseudo-kinase domain (JH2, amino-acids 536-812 with 3 surface mutations W659A, W777A, F794H) of human Wild Type JAK2 (Homo sapiens, UniProt O60674, F794H/W659A/W777A); experiment: JAK2 LanthaScreen JH2-WT binding assay; conditions: 50 nM tracer, 1 hour at 25° C., read-out: JH2 BIND WT IC50
T3 construct: pseudo-kinase domain (JH2, amino-acids 536-812 with 3 surface mutations W659A, W777A, F794H); His (C); Avi (biotinylated) (C); purchased BPS Bioscience 79463; host or cells: baculovirus expression system
T3 sequence (O60674 536-812 W659A/W777A/F794H): as the sequence (O60674 536-812 V617F/W659A/W777A/F794H) above, with F82V counted along it
Method: Example B. JAK2 LanthaScreen JH2-WT Binding Assay
as §1, with “JH2-WT” for “JH2-V617F”, “Wild Type” for “V617F mutant”, “#79463).” for “#79498).”, “JH2-WT (0.145” for “JH2-V617F (0.26”

SMILES	IC50 [1] [nM]	IC50 [2] [nM]	IC50 [3] [nM]
COC(=O)N[C@H]1C[C@H](N2C(=O)NCc3cnc4[nH]c(C5=CCN(C)CC5)c(-c5ccc6c(cnn6C(C)C)c5)c4c32)C1 [Example 34, Methyl ((1r,3r)-3-(9-(1-isopropyl-1H-indazol-5-yl)-8-(1-methyl-1,2,3,6-tetra hydropyridin-4-yl)-2-oxo-2,3,4,7-tetrahydro-1H-pyrrolo[3′,2′:5,6]pyrido[4,3-d]pyrimidin-1-yl)cyclobutyl) carbamate]	10 to 100	> 1000	10 to 100
COC(=O)N[C@@H]1CC[C@@H](n2c(=O)[nH]c(=O)c3cnc4[nH]c(-c5cnn(C)c5)c(-c5ccc6c(cnn6C(C)C)c5)c4c32)C1 [Example 39, Methyl ((1R,3R)-3-(9-(1-isopropyl-1H-indazol-5-yl)-8-(1-methyl-1H-pyrazol-4-yl)-2,4-dioxo-2,3,4,7-tetrahydro-1H-pyrrolo[3′,2′:5,6]pyrido[4,3-d]pyrimidin-1-yl)cyclopentyl)carbamate]	10 to 100	> 1000	10 to 100
CC(=O)N1CCC(N2C(=O)NCc3cnc4[nH]c(-c5cnn(C)c5)c(-c5ccc6c(cnn6C(C)C)c5)c4c32)CC1 [Example 15, 1-(1-Acetylpiperidin-4-yl)-9-(1-isopropyl-1H-indazol-5-yl)-8-(1-methyl-1H-pyrazol-4-yl)-1,3,4,7-tetrahydro-2H-pyrrolo [3′,2′:5,6]pyrido[4,3-d]pyrimidin-2-one]	10 to 100	> 1000	10 to 100
COC(=O)N1CCC(N2C(=O)NCc3cnc4[nH]c(-c5cnn(C)c5)c(-c5ccc6c(cnn6C(C)C)c5)c4c32)CC1 [Example 14, Methyl 4-(9-(1-isopropyl-1H-indazol-5-yl)-8-(1-methyl-1H-pyrazol-4-yl)-2-oxo-2,3,4,7-tetrahydro-1H-pyrrolo[3′,2′:5,6]pyrido[4,3-d]pyrimidin-1-yl)piperidine-1-carboxylate]	10 to 100	> 1000	10 to 100
CC(C)n1ncc2cc(-c3c(-c4cnn(C)c4)[nH]c4ncc5c(c34)N([C@H]3C[C@@H](NC(=O)c4nc(C(F)(F)F)cs4)C3)C(=O)NC5)ccc21 [Example 22, N-((1s,3s)-3-(9-(1-isopropyl-1H-indazol-5-yl)-8-(1-methyl-1H-pyrazol-4-yl)-2-oxo-2,3,4,7-tetrahydro-1H-pyrrolo[3′,2′:5,6]pyrido[4,3-d]pyrimidin-1-yl)cyclobutyl)-4-(trifluoromethyl)thiazole-2-carboxamide]	100 to 500	> 1000	100 to 500
COC(=O)N[C@@H]1CC[C@@H](n2c(=O)nc(N)c3cnc4[nH]c(-c5cnn(C)c5)c(-c5ccc6c(cnn6C(C)C)c5)c4c32)C1 [Example 41, Methyl ((1R,3R)-3-(4-amino-9-(1-isopropyl-1H-indazol-5-yl)-8-(1-methyl-1H-pyrazol-4-yl)-2-oxo-2,7-dihydro-1H-pyrrolo[3′,2′:5,6]pyrido[4,3-d]pyrimidin-1-yl)cyclopentyl)carbamate]	≤ 10	500 to 1000	≤ 10
COC(=O)N[C@@H]1CC[C@@H](N2C(=O)NCc3cnc4[nH]c(-c5cnn(C)c5)c(-c5ccc6c(c5)COC6(C)C)c4c32)C1 [Example 26, Methyl ((1R,3R)-3-(9-(1,1-dimethyl-1,3-dihydroisobenzof uran-5-yl)-8-(1-methyl-1H-pyrazol-4-yl)-2-oxo-2,3,4,7-tetrahydro-1H-pyrrolo[3′,2′:5,6]pyrido[4,3-d]pyrimidin-1-yl)cyclopentyl)ca rbamate]	≤ 10	500 to 1000	≤ 10
COC(=O)N[C@H]1C[C@H](N2C(=O)NCc3cnc4[nH]c(-c5ccc(CN6CCOCC6)cc5)c(-c5ccc6c(cnn6C(C)C)c5)c4c32)C1 [Example 33, Methyl ((1r,3r)-3-(9-(1-isopropyl-1H-indazol-5-yl)-8-(4-(morpholinomethyl)phenyl)-2-oxo-2,3,4,7-tetrahydro-1H-pyrrolo[3′,2′:5,6]pyrido[4,3-d]pyrimidin-1-yl)cyclobutyl)carbamate]	≤ 10	> 1000	≤ 10
COC(=O)N[C@@H]1CC[C@@H](N2C(=O)NCc3cnc4[nH]c(-c5cnn(C)c5)c(-c5ccc6c(cnn6C(C)C)c5)c4c32)C1 [Example 30, Methyl ((1R,3R)-3-(9-(1-isopropyl-1H-indazol-5-yl)-8-(1-methyl-1H-pyrazol-4-yl)-2-oxo-2,3,4,7-tetrahydro-1H-pyrrolo[3′,2′:5,6]pyrido[4,3-d]pyrimidin-1-yl)cyclopentyl) carbamate]	≤ 10	> 1000	≤ 10
COC(=O)N[C@@H]1CC[C@@H](n2c(=O)nc(N(C)C)c3cnc4[nH]c(-c5cnn(C)c5)c(-c5ccc6c(cnn6C(C)C)c5)c4c32)C1 [Example 43, Methyl ((1R,3R)-3-(4-(dimethylamino)-9-(1-isopropyl-1H-indazol-5-yl)-8-(1-methyl-1H-pyrazol-4-yl)-2-oxo-2,7-dihydro-1H-pyrrolo[3′,2′:5,6]pyrido[4,3-d]pyrimidin-1-yl)cyclopentyl)carbamate]	100 to 500	> 1000	100 to 500
COC(=O)N[C@H]1C[C@H](N2C(=O)NCc3cnc4[nH]c(-c5cc(C)nc(C)c5)c(-c5ccc6c(cnn6C(C)C)c5)c4c32)C1 [Example 35, Methyl ((1r,3r)-3-(8-(2,6-dimethylpyridin-4-yl)-9-(1-isopropyl-1H-indazol-5-yl)-2-oxo-2,3,4,7-tetrahydro-1H-pyrrolo[3′,2′:5,6]pyrido[4,3-d]pyrimidin-1-yl)cyclobutyl) carbamate]	10 to 100	> 1000	10 to 100
CC(=O)N[C@H]1C[C@@H](N2C(=O)NCc3cnc4[nH]c(-c5cnn(C)c5)c(-c5ccc6c(cnn6C(C)C)c5)c4c32)C1 [Example 5, N-((1s,3s)-3-(9-(1-Isopropyl-1H-indazol-5-yl)-8-(1-methyl-1H-pyrazol-4-yl)-2-oxo-2,3,4,7-tetrahydro-1H-pyrrolo[3′,2′:5,6]pyrido[4,3-d]pyrimidin-1-yl)cyclobutyl) acetamide]	10 to 100	500 to 1000	10 to 100
CC(C)n1ncc2cc(-c3c(-c4cnn(C)c4)[nH]c4ncc5c(c34)N([C@H]3CC[C@@H]3NC(=O)NCC(F)F)C(=O)NC5)ccc21 (racemic) [Example 8, N-(2,2-Difluoroethyl)-3-(trans-2-(9-(1-isopropyl-1H-indazol-5-yl)-8-(1-methyl-1H-pyrazol-4-yl)-2-oxo-2,3,4,7-tetrahydro-1H-pyrrolo[3′,2′:5,6]pyrido[4,3-d]pyrimidin-1-yl)cyclobutyl)urea]	100 to 500	> 1000	10 to 100
